From PubChem BioAssay (NCI)
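Each compound was tested at five concentrations against cells in 96-well plates for 48 hours. GI50: concentration for 50% inhibition of growth. TGI: concentration producing complete growth inhibition.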

Columns and labels:
Experiment in all cases: NCI anticancer screen, dose series, 48 h
[1] = test system: LOX IMVI melanoma
[2] = test system: SNB-19 CNS
[3] = test system: CAKI-1 renal
[4] = test system: SF-539 CNS
[5] = test system: MDA-MB-435
[6] = test system: HS 578T breast
[7] = test system: SR leukemia
[8] = test system: HOP-62 NSCLC
[9] = test system: NCI/ADR-RES ovarian
[10] = test system: SK-MEL-5 melanoma
[11] = test system: HL-60(TB) leukemia
[12] = test system: OVCAR-3 ovarian
[13] = test system: COLO 205 colon
[14] = test system: NCI-H23 lung
[15] = test system: SK-MEL-28 melanoma
[16] = test system: OVCAR-5 ovarian
[17] = test system: HOP-92 NSCLC
[18] = test system: SK-OV-3 ovarian
[19] = test system: CCRF-CEM leukemia
[20] = test system: A549 NSCLC
[21] = test system: RPMI-8226 leukemia
[22] = test system: SK-MEL-2 melanoma
[23] = test system: TK-10 renal
[24] = test system: MDA-MB-231 breast
[25] = test system: MCF7 breast
[26] = test system: SN12C renal
[27] = test system: UO-31 renal
[28] = test system: OVCAR-8 ovarian
[29] = test system: HT29 colon
[30] = test system: UACC-62 melanoma
[31] = test system: NCI-H522 lung
[32] = test system: U251 CNS
[33] = test system: 786-0 renal
[34] = test system: DU-145 prostate
[35] = test system: K-562 leukemia
[36] = test system: MOLT-4 leukemia
[37] = test system: UACC-257 melanoma
[38] = test system: NCI-H460 lung
[39] = test system: PC-3 prostate
[40] = test system: OVCAR-4 ovarian
[41] = test system: BT-549 breast
[42] = test system: MALME-3M melanoma
[43] = test system: RXF 393 renal
[44] = test system: T-47D breast
[45] = test system: HCT-116 colon
[46] = test system: IGROV1 ovarian
[47] = test system: SNB-75 CNS

Compound `Cc1ccc(NC2=N[C@]34CC(=O)CC[C@]3(C)[C@H]3CC[C@]5(C)C(=O)CC[C@H]5[C@@H]3C[C@@H]4S2)c(C)c1` has a GI50 [1] of 1640 nM, a TGI [1] of 3130 nM and a GI50 [2] of 2120 nM. The TGI [2] was 5090 nM, the GI50 [3] was 2830 nM and the TGI [3] was over 100000 nM. For the same compound, the GI50 [4] was 1620 nM, the TGI [4] was 3080 nM and the GI50 [5] was 3020 nM. The TGI [5] was over 100000 nM, the GI50 [6] was 3750 nM and the TGI [6] was over 100000 nM. For the same compound, the GI50 [7] was 2320 nM, the TGI [7] was over 100000 nM and the GI50 [8] was 2430 nM. The TGI [8] was 6920 nM, the GI50 [9] was 2910 nM and the TGI [9] was over 100000 nM. The GI50 [10] was 1860 nM, the TGI [10] was 3730 nM and the GI50 [11] was 2470 nM. For the same compound, the TGI [11] was 6030 nM, the GI50 [12] was 2180 nM and the TGI [12] was 5030 nM. For the same compound, the GI50 [13] was 2500 nM, the TGI [13] was 6540 nM and the GI50 [14] was 2010 nM. For the same compound, the TGI [14] was 4850 nM, the GI50 [15] was 2310 nM and the TGI [15] was 6080 nM. The GI50 [16] was 2900 nM, the TGI [16] was over 100000 nM and the GI50 [17] was 1720 nM. It also gave a TGI [17] of 3860 nM, a GI50 [18] of 9850 nM and a TGI [18] of over 100000 nM. It also gave a GI50 [19] of 2450 nM, a TGI [19] of over 100000 nM and a GI50 [20] of 3500 nM. It also gave a TGI [20] of over 100000 nM, a GI50 [21] of 2430 nM and a TGI [21] of 6250 nM. The GI50 [22] was 2190 nM, the TGI [22] was 4740 nM and the GI50 [23] was 2460 nM. For the same compound, the TGI [23] was 6700 nM, the GI50 [24] was 2330 nM and the TGI [24] was 7920 nM. For the same compound, the GI50 [25] was 2310 nM, the TGI [25] was over 100000 nM and the GI50 [26] was 2170 nM. It also gave a TGI [26] of 5070 nM, a GI50 [27] of 1340 nM and a TGI [27] of 2860 nM. The GI50 [28] was 2630 nM, the TGI [28] was 7260 nM and the GI50 [29] was 2550 nM. The TGI [29] was 7040 nM, the GI50 [30] was 1720 nM and the TGI [30] was 3940 nM. For the same compound, the GI50 [31] was 1680 nM, the TGI [31] was 3280 nM and the GI50 [32] was 1690 nM. The TGI [32] was 3210 nM, the GI50 [33] was 1620 nM and the TGI [33] was 3070 nM. The GI50 [34] was 2040 nM, the TGI [34] was 5180 nM and the GI50 [35] was 2860 nM. For the same compound, the TGI [35] was over 100000 nM, the GI50 [36] was 2490 nM and the TGI [36] was over 100000 nM. For the same compound, the GI50 [37] was 3700 nM, the TGI [37] was over 100000 nM and the GI50 [38] was 2700 nM. It also gave a TGI [38] of 8390 nM, a GI50 [39] of 1860 nM and a TGI [39] of 4530 nM. It also gave a GI50 [40] of 3830 nM, a TGI [40] of over 100000 nM and a GI50 [41] of 1490 nM. It also gave a TGI [41] of 2940 nM, a GI50 [42] of 1990 nM and a TGI [42] of 5550 nM. It also gave a GI50 [43] of 1740 nM, a TGI [43] of 3230 nM and a GI50 [44] of 2890 nM. The TGI [44] was over 100000 nM, the GI50 [45] was 1490 nM and the TGI [45] was 2850 nM. For the same compound, the GI50 [46] was 2110 nM, the TGI [46] was 5140 nM and the GI50 [47] was 2190 nM. The TGI [47] was 97500 nM.
